{
  "source": "paper PMC3914206",
  "type_in_all_cases": "binding",
  "settings_in_all_cases": "Compound Concentration 10 µM",
  "key": {"panel of 442 kinases [1]": {"target": "T1, panel of 442 kinases (Homo sapiens, UniProt Q8N4C8)", "T1 construct": "purchased KINOMEscan", "text": "(§1) We assessed the selectivity of members of this scaffold using the KINOMEscan methodology across a near comprehensive panel of 442 kinases [[18,27]]."}, "panel of 442 kinases [2]": {"target": "T2, panel of 442 kinases (Homo sapiens, UniProt Q9P286)", "T2 construct": "purchased KINOMEscan", "text": "as §1"}, "panel of 442 kinases [3]": {"target": "T3, panel of 442 kinases (Homo sapiens, UniProt P36888, D835H)", "T3 construct": "purchased KINOMEscan", "T3 sequence (P36888 27-993 D835H)": "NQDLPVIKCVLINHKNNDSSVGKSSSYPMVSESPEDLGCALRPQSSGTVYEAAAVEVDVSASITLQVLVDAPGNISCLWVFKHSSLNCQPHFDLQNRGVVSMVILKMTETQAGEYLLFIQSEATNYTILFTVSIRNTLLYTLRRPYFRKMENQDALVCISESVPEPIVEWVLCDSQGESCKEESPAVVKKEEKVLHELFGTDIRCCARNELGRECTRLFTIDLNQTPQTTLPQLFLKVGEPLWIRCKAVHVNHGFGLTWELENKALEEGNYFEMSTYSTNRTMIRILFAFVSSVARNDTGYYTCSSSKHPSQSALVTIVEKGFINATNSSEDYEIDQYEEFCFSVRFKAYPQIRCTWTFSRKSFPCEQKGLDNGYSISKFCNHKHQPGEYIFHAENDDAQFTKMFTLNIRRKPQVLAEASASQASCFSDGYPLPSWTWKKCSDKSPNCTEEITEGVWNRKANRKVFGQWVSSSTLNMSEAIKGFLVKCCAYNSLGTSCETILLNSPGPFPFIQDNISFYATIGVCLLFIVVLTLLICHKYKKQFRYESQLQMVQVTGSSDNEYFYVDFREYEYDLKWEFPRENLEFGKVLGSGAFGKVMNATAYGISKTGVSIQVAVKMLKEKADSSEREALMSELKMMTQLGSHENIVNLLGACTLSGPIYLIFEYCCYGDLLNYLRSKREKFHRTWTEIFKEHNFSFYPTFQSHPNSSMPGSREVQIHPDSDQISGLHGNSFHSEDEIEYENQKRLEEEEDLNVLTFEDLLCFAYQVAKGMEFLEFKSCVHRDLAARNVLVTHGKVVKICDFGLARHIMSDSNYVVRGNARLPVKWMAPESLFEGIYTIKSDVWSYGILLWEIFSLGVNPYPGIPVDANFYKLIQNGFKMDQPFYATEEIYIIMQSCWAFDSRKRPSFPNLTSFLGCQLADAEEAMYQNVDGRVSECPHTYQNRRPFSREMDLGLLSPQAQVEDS", "text": "as §1"}},
  "data": [
    {"smiles": "COc1cc(C(=O)N2CCC(N3CCN(C)CC3)CC2)ccc1Nc1ncc2c(n1)N(C1CCCC1)c1ccccc1C(=O)N2C", "note": "[Compound 25, 11-cyclopentyl-2-((2-methoxy-4-(4-(4-methylpiperazin-1-yl)piperidine-1-carbonyl)phenyl)amino)-5-methyl-5H-benzo[e]pyrimido[5,4-b][1,4]diazepin-6(11H)-one]", "values": [
      {"measurement": "KINOMEscan: MINK", "setting": "panel of 442 kinases [1]", "value": 100},
      {"measurement": "KINOMEscan: PAK7", "setting": "panel of 442 kinases [2]", "value": 100},
      {"measurement": "KINOMEscan: FLT3(D835H)", "setting": "panel of 442 kinases [3]", "value": 100}
    ]},
    {"smiles": "COc1cc(C(=O)N2CCC(N3CCN(C)CC3)CC2)ccc1Nc1ncc2c(n1)N1CCc3cccc(c31)C(=O)N2C", "note": "[Compound 24]", "values": [
      {"measurement": "KINOMEscan: MINK", "setting": "panel of 442 kinases [1]", "value": 36}
    ]},
    {"smiles": "COc1cc(C(=O)N2CCC(N3CCN(C)CC3)CC2)ccc1Nc1ncc2c(n1)N(C)c1ccccc1C(=O)N2C", "note": "[15 (LRRK2-IN-1)]", "values": [
      {"measurement": "KINOMEscan: MINK", "setting": "panel of 442 kinases [1]", "value": 77},
      {"measurement": "KINOMEscan: PAK7", "setting": "panel of 442 kinases [2]", "value": 96},
      {"measurement": "KINOMEscan: FLT3(D835H)", "setting": "panel of 442 kinases [3]", "value": 100}
    ]},
    {"smiles": "CCOc1cc(C(=O)N2CCC(N3CCN(C)CC3)CC2)ccc1Nc1ncc2c(n1)N(C1CCCC1)c1ccccc1C(=O)N2C", "note": "[Compound 26]", "values": [
      {"measurement": "KINOMEscan: MINK", "setting": "panel of 442 kinases [1]", "value": 100},
      {"measurement": "KINOMEscan: PAK7", "setting": "panel of 442 kinases [2]", "value": 100},
      {"measurement": "KINOMEscan: FLT3(D835H)", "setting": "panel of 442 kinases [3]", "value": 100}
    ]}
  ]
}
